≈ marks a conversion by molar mass, not a printed value. Where a SMILES comes first, the peptide text is derived from it.
Columns and labels:
[1] = system: ribosomal S1 protein from T. thermophilus; experiment: Electron microscopy, coaggregation of peptide with S1 protein
Procedure: (§1) The presence of amyloid fibrils in the test samples was monitored by transmission electron microscopy (TEM). End-point solutions of peptides were collected and the samples were dissolved in the same solution to 0.2 mg/mL before studying with electron microscopy. A formvar-coated copper grid 400 mesh (Electron Microscopy Sciences, Hatfield, PA, USA) was placed on a 10 μL sample. After 5 min absorption, the grids with the preparation were negatively stained for 1.5–2.0 min with 1% (weight/volume) aqueous solution of uranyl acetate. The excess of the staining agent was removed with filter paper. The preparations were analyzed using a JEM-100C (Jeol, Tokyo, Japan) transmission electron microscope at the accelerating voltage of 80 kV. Images were recorded on the Kodak electron image film (SO-163) at nominal magnification of 40,000–60,000.

[2] = system: T. thermophilus cell culture; format: cell-based
Procedure: UV-Vis spectra were recorded using a spectrophotometr SF-102 (Akvilon, Moscow, Russia). At the end of the incubation, the density of the medium was estimated by spectrophotometry in a cuvette 10 mm with a total volume of 100 μL. The cuvettes were filled with the peptide water solutions and spectra were collected, using a wavelength from 600 nm. Biological activity of peptides was evaluated by their minimum concentration, which that may inhibit the growth of T. thermophilus bacteria culture. Biological activity of peptides was counted by using the following equation: (1) E=1−A (sample with peptide)/A (sample without peptide), where E is a biological activity of peptides, A is an optical absorption after 24 h incubation with and without peptide.
To construct a dose-effect curve and estimate the quantitative parameters of the curves, the statistical environment R and the drc package were used. The choice of model for describing the functional dependence was determined by several parameters: the logarithm of the maximum value of the likelihood function (logLik), the Akaike information criterion (IC), and the residual variance (Res var).
The algorithm for evaluating antimicrobial activity includes the study of this process and the dose–response relationship. The reaction of a biological object determines a quantitative assessment of the antimicrobial effect, depending not only on the concentration of the peptide, but also on the time of its action. Almost any impact begins with a certain threshold. An important final result of the experiment is the assessment of this threshold—the minimum inhibitory concentration (MIC) at which peptide influence is observed.

T. thermophilus cells = experiment: Electron microscopy of intact and peptide-treated T. thermophilus cells; format: cell-based
Procedure: Along with the spectrophotometric method for determining the antimicrobial activity of peptides, the viability of cells was evaluated using electron microscopy. […] At the given peptide concentration, cells with a typical morphology and flagella were often found. Many protein aggregates were also observed. The absence of an antimicrobial effect with an increase in the concentration of the peptide to 1000 μg/mL, consistent with the spectrophotometry data of the antimicrobial activity of peptides (Figure 3).
as §1

`CC[C@H](C)[C@H](NC(=O)[C@H](CCC(=O)O)NC(=O)[C@@H](NC(=O)[C@H](Cc1ccccc1)NC(=O)[C@@H](NC(=O)CNC(=O)[C@H](Cc1ccccc1)NC(=O)[C@H](CC(=O)O)NC(=O)[C@@H](NC(=O)[C@@H](NC(=O)CNC(=O)CN(C)C(=O)CNC(=O)CNC(=O)[C@H](CCCNC(=N)N)NC(=O)[C@H](CCCNC(=N)N)NC(=O)[C@H](CCCNC(=N)N)NC(=O)[C@H](CCC(N)=O)NC(=O)[C@H](CCCNC(=N)N)NC(=O)[C@H](CCCNC(=N)N)NC(=O)[C@H](CCCCN)NC(=O)[C@H](CCCCN)NC(=O)[C@@H](N)CCCNC(=N)N)C(C)C)[C@@H](C)O)C(C)C)C(C)C)C(=O)O` [R23I] (HELM PEPTIDE1{R.K.K.R.R.Q.R.R.R.G.G.[Sar].G.V.T.D.F.G.V.F.V.E.I}$$$$V2.0; N-terminus and C-terminus assumed) was tested, and the “morphology of peptide/S1 protein mixture by electron microscopy” value ([1]; peptide:S1 protein ratio 1:1) was “both the protein aggregates and fibrils were observed”, the “morphology of peptide/S1 protein mixture by electron microscopy” value ([1]; peptide:S1 protein ratio 5:1 (S1:peptide = 1:5)) was “both the protein aggregates and fibrils were observed” and the “change of optical density of T. thermophilus culture over time” value ([2]; 50 μg/mL in medium, OD 600 nm versus sampling time, DMSO control reached 0.8) was “no increase in the optical density”. For the same molecule, the “minimal inhibitory concentration (MIC)” value ([2]; T. thermophilus culture, optical absorption at 600 nm after 24 h incubation, 5 repeats for R23I, 2 for R23T and V10I) was 50 µg/mL (≈ 18.6 µM), the “concentration at which a pronounced antibacterial effect is observed (no activity below)” value ([2]; T. thermophilus culture, additional concentrations 0.5-250 μg/mL tested) was 40 µg/mL and the “concentration leading to formation of aggregates in solution and increase in optical density” value ([2]; culture medium, OD 600 nm) was ≥ 500 µg/mL. For the same molecule, the “cell morphology by electron microscopy” value (T. thermophilus cells; peptide 50 μg/mL) was “whole cells were practically absent”, the “cell morphology by electron microscopy” value (T. thermophilus cells; peptide 100 μg/mL) was “the number of cells decreased” and the “cell morphology by electron microscopy” value (T. thermophilus cells; peptide 1000 μg/mL) was “did not lead to the morphological changes compared with the control”.

Source: PMC7504387, “Antimicrobial and Amyloidogenic Activity of Peptides Synthesized on the Basis of the Ribosomal S1 Protein from Thermus Thermophilus” (International Journal of Molecular Sciences, 2020)
